# Data taken from paper PMC3989318, “Strong Vaccine-Induced CD8 T-Cell Responses Have Cytolytic Function in a Chimpanzee Clearing HCV Infection” (PLoS ONE, 2014).
# Read-outs that look alike come from different tables or passages of the source. Where no end group is shown, it is not given here.
# Columns and labels:
# [1] = molecular target: T1, Patr-A*03∶01 (Pan troglodytes, UniProt P13748); experiment: cell-based peptide-binding-competition-assay, Patr-A*03∶01; parameters: species or system chimpanzee (Pan troglodytes); settings: competition with 500nM biotinylated indicator peptide […], overnight, europium-streptavidin DELFIA
# T1 construct: expressed in transfected cells; host or cells: K562 or 721.221 cells
# Method: A cell-based peptide-binding-competition-assay was performed as previously described. In this assay, peptides are tested for binding to transfected cell lines expressing chimpanzee class-I molecules, while competing with a biotin-labeled reference-peptide. […] After overnight incubation, excess peptide was removed by washing and indicator-peptide bound to cells was quantified using the DELFIA-system and the Victor3 1420 multilabel counter (Perkin Elmer). The binding affinity of the indicator peptide was verified using its unlabeled peptide as competitor, this is referred to as standardized competitor [15].
# [2] = tested on: expanded CD8 T-cells; experiment: intracellular cytokine staining of expanded CD8 T-cells after peptide restimulation; assay type: cell-based, chimpanzee (Pan troglodytes); settings: two weeks after the final vaccine boost
# Excerpt: For stimulation and expansion of HCV-specific cells, two different NS3-peptide-pools were compiled: NS3vaccine was a mixture of 15-mer peptides with 11 amino acids overlap, covering the NS3-sequence of the vaccine constructs; NS3challenge was a mixture of 15-mer peptides with 11 amino acids overlap covering the NS3-variants observed in the inoculum. Identification of NS3 epitopes within NS3 was first performed via the matrix setup and confirmed in a second assay using individual peptides (peptide-sequences are listed in Table S1).
# Cells isolated before infection were expanded and tested for response against peptide-pool NS3vaccine, whereas cells isolated after challenge were tested against peptide-pool NS3challenge. PBMCs isolated at the day of challenge were stimulated in two separate cultures with either NS3vaccine or NS3challenge. […]
# The cytokine production profile of HCV-specific T-cell lines was determined by intracellular cytokine staining (ICS) after restimulation with NS3-peptides. […] Cell staining was analyzed on a FACSAria (BD Bioscience) and DIVA software Version 6.1.1.
# [3] = molecular target: T1, Patr-A*03∶01; parameters: method as in PMID 20696916; settings: unlabeled indicator peptide as competitor; ref [15]; read-out: IC50 of standardized competitor; cited from earlier work
# [4] = MHC class I transfected K562 or 721.221 cells, regression curves of three independent experiments
molecule,measurement,setting,value
CSCC[C@H](NC(=O)[C@H](Cc1ccc(O)cc1)NC(=O)[C@H](C)NC(=O)CNC(=O)[C@H](Cc1ccccc1)NC(=O)CNC(=O)[C@@H](N)CC(C)C)C(=O)N[C@@H](CO)C(=O)N[C@@H](CCCCN)C(=O)O,IC50,[1]; [4],0.03 µM
"IRTGVRTITTGGPIT [p64, 15-mer NS3 peptide]",cytokine induction in expanded CD8 T-cells,[2]; Vac1,did not induce cytokine production
same,cytokine induction in expanded CD8 T-cells,[2]; Vac2,moderate dual IFNγ/IL-2 and IFNγ/TNFa cytokine production
"standardized competitor peptide of Patr-A*03∶01: unlabeled peptide of the A*03∶01 indicator peptide, used as competitor (ATALECVYK; Unlabeled: no biotin on Cys6, which carries biotin in the indicator form)",IC50,[3],1.5 µM
KGGLRPRAG [reference compound],IC50,"[1]; transfected K562 or 721.221 cells, two individual experiments",8.2 µM
VAATLGFGAYMSKAH [p59],IC50,[1]; [4],0.06 µM
CC(C)C[C@H](NC(=O)[C@@H](NC(=O)[C@H](C)NC(=O)[C@H](C)N)[C@@H](C)O)C(=O)NCC(=O)N[C@@H](Cc1ccccc1)C(=O)NCC(=O)N[C@@H](C)C(=O)N[C@@H](Cc1ccc(O)cc1)C(=O)O,IC50,[1]; [4],0.2 µM
